Converted amounts (≈) assume the structure as drawn.
Columns and labels:
Salmonella typhimurium = assay: Agar-dilution MIC; assay type: cell-based; conditions: Salmonella enterica, Agar-Dilution Method
[1] = system: Staphylococcus aureus 3055; assay: Disc-plate MIC; conditions: Disc-Plate Method; benzylpenicillin-susceptible
Proteus sp. = assay: Disc-plate MIC; conditions: Disc-Plate Method
Eubacterium aerofaciens = assay: MIC, anaerobic bacteria; assay type: cell-based; conditions: Collinsella aerofaciens
Clostridium perfringens = assay: microbe, parasite or virus in culture; assay type: cell-based
[2] = system: Bacteriodes fragilis ssp. vulgates; assay: MIC, anaerobic bacteria; assay type: cell-based
[3] = system: Staphylococcus aureus 3055; assay: Agar-dilution MIC; assay type: cell-based; conditions: Agar-Dilution Method, benzylpenicillin-susceptible
[4] = system: Bacteriodes fragilis ssp. thetaotamicron; assay: MIC, anaerobic bacteria; assay type: cell-based
Veillonella alcalescens = assay: MIC, anaerobic bacteria; assay type: cell-based; conditions: Veillonella parvula
Peptococcus anaerobius = assay: MIC, anaerobic bacteria; assay type: cell-based
Shigella flexneri = assay: Disc-plate MIC; assay type: cell-based; conditions: Disc-Plate Method
Clostridium septicum = assay: MIC, anaerobic bacteria; assay type: cell-based
Salmonella typhosa = assay: Agar-dilution MIC; conditions: Salmonella enterica
[5] = system: Peptostreptococcus intermedius; assay: MIC, anaerobic bacteria; assay type: cell-based
[6] = system: anthracnose (Colletotrichum lagenarium); assay type: in vivo; conditions: 400 ppm
Description: In yet another aspect of the invention, the A-2315 antibiotics are useful as plant-fungicidal agents.

[7] = system: Klebsiella pneumoniae KA14; assay: Disc-plate MIC; conditions: Disc-Plate Method
[8] = system: cariogenic filamentous rods; assay: Broth-dilution growth inhibition of cariogenic organism; assay type: cell-based; conditions: read-out: growth inhibiting concentration (as low as)
Method: (§1) In another aspect of the present invention, the A-2315 antibiotics have the ability to inhibit the growth of microorganisms contributing to the development of periodontal disease. In broth-dilution tests, A-2315 factor A inhibits the growth of the cariogenic organism Streptococcus mutans at concentrations of 1-2 μg/ml and inhibits the growth of cariogenic filamentous rods at a concentration as low as 0.1 μg/ml.

Streptococcus mutans = assay: as above; assay type: cell-based; conditions: read-out: growth inhibiting concentration
Method: as §1

Ruminal VFA [9] = assay: Ruminal volatile fatty acids in vitro; parameters: species or system steer; conditions: 16 hours, 38°C
Description: Rumen fluid is obtained from a steer with a surgically-installed fistula opening into the rumen. The steer is maintained on a high-grain ration, the composition of which follows:
A sample of rumen fluid is strained through four layers of cheesecloth, and the filtrate is collected. The particulate matter retained by the cheesecloth is resuspended in enough physiological buffer to return it to the original volume of the rumen fluid, and this suspension is strained again. The buffer used has the following composition:
The two filtrates are combined and allowed to stand until particulate matter separates to the top. The clear layer is separated, diluted with the same buffer (1:1) and then adjusted to pH 7.0.
The diluted rumen fluid (10 ml) is placed in a 25-ml flask with 40 mg of the above-described feed, an additional 5 mg of soybean protein, and the test compound. Four replicate flasks are used per treatment. Two sets of four control flasks each are also employed. A zero-time control and an incubated 16-hour control are used. All test flasks are incubated for 16 hours at 38°C. After incubation, the pH is measured; and 25 percent metaphosphoric acid (2 ml) is added to each flask. The samples are allowed to settle, and the supernatant is analyzed by gas chromatography for propionate, acetate, butyrate compounds.
Test-compound results are statistically compared with control results.

Mycobacterium avium = assay: Disc-plate MIC; conditions: Disc-Plate Method
Erwinia amylovora = assay: Agar-dilution MIC; assay type: cell-based; conditions: Agar-Dilution Method
Sarcina lutea = assay: Disc-plate MIC; conditions: Disc-Plate Method
Ruminal VFA [10] = assay: Ruminal volatile fatty acids in vivo in fistulated lambs; parameters: species or system sheep; conditions: 17 days
Method: Further evidence of the ability of the A-2315 antibiotics to increase feed-utilization efficiency is provided by an in vivo test of A-2315 factor A in sheep, using a procedure as follows:
Two groups of fistulated lambs are allowed slightly more than their normal feed ration for 17 days. Test compound is administered to one group in the feed on a g/ton basis.
The rumen fluids of both groups of animals are sampled on days 3, 7, 10, 14 and 17 of the treatment period.
The fermentation of the ruminal samples is halted by addition of meta-phosphoric acid. Each sample is diluted, centrifuged at 2000 × gravity for 10 minutes; the supernatants are analyzed for volatile fatty acids via the gas chromatographic method of E. S. Erwin, G. J. Marco and E. M. Emery in J. Dairy Sci., 44, 1768 (1966). Molar percentages of ruminal volatile fatty acids are calculated, and the effect is measured as a comparison of the molar percentages of propionic acid in treated animals to those in contemporary controls.

[11] = system: Staphylococcus aureus 3074; assay: Agar-dilution MIC; assay type: cell-based
Actinomyces bovis = assay: MIC, anaerobic bacteria; assay type: cell-based
[12] = system: Staphylococcus aureus 3074; assay: Disc-plate MIC; conditions: Disc-Plate Method; benzylpenicillin-resistant, methicillin-resistant
Streptococcus faecalis = assay: Agar-dilution MIC; assay type: cell-based; conditions: Enterococcus faecalis; Agar-Dilution Method
[13] = 0.1 mcg per ml diluted rumen fluid
[14] = 0.3 mcg per ml diluted rumen fluid
[15] = 1.0 mcg per ml diluted rumen fluid

CC1=CC(O)CC(O)Cc2nc(co2)C(=O)NC(C)C(=O)OC(C(C)C)C(C)C=CC(=O)NCC=C1 (stereo not shown) [Factor A]
MIC (Salmonella typhimurium): > 100 µg/mL | MIC [1]: 0.025 μg/disc | MIC (Proteus sp.): 100. μg/disc | MIC (Eubacterium aerofaciens): 16 µg/mL (≈ 31.8 µM) | MIC (Clostridium perfringens): 32 µg/mL (≈ 63.5 µM) | MIC [2]: 64 µg/mL (≈ 127 µM) | MIC [3]: 6.25 µg/mL (≈ 12.4 µM) | MIC [4]: 128 µg/mL (≈ 254 µM) | MIC (Veillonella alcalescens): 16 µg/mL (≈ 31.8 µM) | MIC (Peptococcus anaerobius): 2 µg/mL (≈ 3.97 µM) | MIC (Shigella flexneri): 1.56 μg/disc | MIC (Clostridium septicum): 32 µg/mL (≈ 63.5 µM) | MIC (Salmonella typhosa): > 100 µg/mL | MIC [5]: 8 µg/mL (≈ 15.9 µM) | protection of cucumber plants [6]: moderate protection | phytotoxicity ([6]; cucumber plants): Only slight phytotoxicity | MIC [7]: 50.0 μg/disc | MIC [8]: 0.1 µg/mL (≈ 0.199 µM) | MIC (Streptococcus mutans): 1 to 2 µg/mL (≈ 1.99 to 3.97 µM) | Acetate, ratio of VFA concentration treated to control (Ruminal VFA [9]; [13]): 0.97 | Butyrate, ratio of VFA concentration treated to control (Ruminal VFA [9]; [13]): 1.01 | Propionate, ratio of VFA concentration treated to control (Ruminal VFA [9]; [13]): 1.07 | Total VFA, ratio of concentration treated to control (Ruminal VFA [9]; [13]): 1.04 | Acetate, ratio of VFA concentration treated to control (Ruminal VFA [9]; [14]): 0.95 | Butyrate, ratio of VFA concentration treated to control (Ruminal VFA [9]; [14]): 1.00 | Propionate, ratio of VFA concentration treated to control (Ruminal VFA [9]; [14]): 1.08 | Total VFA, ratio of concentration treated to control (Ruminal VFA [9]; [14]): 1.07 | Acetate, ratio of VFA concentration treated to control (Ruminal VFA [9]; [15]): 0.95 | Butyrate, ratio of VFA concentration treated to control (Ruminal VFA [9]; [15]): 1.04 | Propionate, ratio of VFA concentration treated to control (Ruminal VFA [9]; [15]): 1.15 | Total VFA, ratio of concentration treated to control (Ruminal VFA [9]; [15]): 1.05 | MIC (Mycobacterium avium): 3.13 μg/disc | MIC (Erwinia amylovora): 50 µg/mL (≈ 99.3 µM) | MIC (Sarcina lutea): 0.008 μg/disc | % Increase Over Control (propionic acid) (Ruminal VFA [10]; 15g/ton in feed): 4.8% | % Increase over Control (butyric acid) (Ruminal VFA [10]; 15g/ton in feed): 2.4% | Increase Relative to Control (butyric acid) (Ruminal VFA [10]; 15g/ton in feed): 21.6% | Increase Relative to Control (propionic acid) (Ruminal VFA [10]; 15g/ton in feed): 18.2% | % Butyric Acid Conc. (Ruminal VFA [10]; 15 g/ton in feed, control 11.1): 13.5% | % Propionic Acid Conc. (Ruminal VFA [10]; 15g/ton in feed, control 26.2): 31.0% | MIC [11]: 1.56 µg/mL (≈ 3.1 µM) | solubility in organic solvents (Solubility): soluble | solubility in water (Solubility): only slightly soluble | MIC (Actinomyces bovis): 16 µg/mL (≈ 31.8 µM) | MIC [12]: 0.4 μg/disc | MIC (Streptococcus faecalis): 1.56 µg/mL (≈ 3.1 µM)
